Literature values in patent publication US12616206B2, “Graphene-silver nanocomposites and uses for same as an antimicrobial composition” (ZENTEK LTD., priority 2020, dated 2026).

Experiments:
Conditions in all cases: literature value, source by footnote a-g
[1] = test system: Salmonella typhi
[2] = test system: Candida albicans
[3] = test system: Vibrio cholerae
[4] = test system: Streptococcus pyogenes

Compound: O=[N+]([O-])[O-].[Ag+] [AgNO3, silver nitrate]
- MIC [1]: 110 ^c μg/mL
- MIC [2]: 4.9 ^f μg/mL
- MIC [3]: 70 ^c μg/mL
- MIC [4]: 80 ^c μg/mL
